In patent US20020137929A1, “1 - (3-heterocyclylphenyl) isothiourea, -isourea, -guanidine and -amidine herbicidal agents” (Intellectual Property Department, BASF Aktiengesellschaft, priority 1998, published 2002):

How the values were obtained:
[1] = system: ECHORC (Watergrass (Calif.)); test: Postemergence weed control under flooded paddy conditions; type: in vivo, Echinochloa oryzoides; settings: postemergence weeds
Method in brief: (§1)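 Weeds 3 to 5 cm tall and rice seedlings at the 1.5 to 2.5 leaf stage were flooded, with water held 1.5 to 3 cm above the soil. Compounds in 50/50 v/v aqueous/acetone went into the flood water at about 0.0313 to 0.500 kg/ha. Visual 0-9 ratings versus control were made 3 to 4 weeks later.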

[2] = system: ECHORC (Watergrass (Calif.)); test: Preemergence weed control under flooded paddy conditions; type: in vivo, Echinochloa oryzoides; settings: rated 3-4 weeks after treatment
Method in brief: (§2)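 Silt loam, seeds in top 0.5 cm; flood held 1.5-3 cm; test cpd as acetone/water 50/50 into flood water, ~0.0313-0.500 kg/ha a.i.; greenhouse 3-4 wk; visual 0-9 score vs control.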

[3] = system: ZEAMX (Corn, Field); test: Postemergence herbicidal evaluation; type: in vivo, Zea mays; settings: for ZEAMX herbicidal rating: postemergence
Method in brief: (§3)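 Two-week-old seedlings sprayed with compound in 50/50 acetone/water plus 0.5% TWEEN 20, at about 0.0156 to 0.500 kg/ha, nozzle at 40 psi. Kept in greenhouse; rated visually 4-5 weeks after treatment on a 0-9 scale versus control, repeat tests averaged.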

[4] = system: ZEAMX (Corn, Field); test: Preemergence herbicidal evaluation; type: in vivo, Zea mays; settings: rated 4-5 weeks after treatment; for ZEAMX rating: preemergence, 0-9 scale
Method in brief: (§4)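 Scores (0–9) reflect visual comparison with control plants for stand, vigor, malformation, size and chlorosis. Compound was applied to the soil after sowing, before emergence, as an aqueous acetone spray (about 0.0156–0.500 kg/ha), and cups were kept in a greenhouse for 4–5 weeks.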

[5] = system: TRZAWR (Wheat, Winter, cv Riband); test: Preemergence herbicidal evaluation; type: in vivo, Triticum aestivum; settings: rated 4-5 weeks after treatment; for TRZAWR rating: preemergence, 0-9 scale
Method in brief: as §4

[6] = system: CYPIR (Rice Flatsedge); test: Preemergence weed control under flooded paddy conditions; type: in vivo, Cyperus iria; settings: rated 3-4 weeks after treatment
Method in brief: as §2

[7] = system: ORYSAT (Rice, Tebonnet); test: Preemergence herbicidal evaluation; type: in vivo, Oryza sativa, (L.) Tebonnet; settings: rated 4-5 weeks after treatment; for ORYSAT rating: preemergence, 0-9 scale
Method in brief: as §4

[8] = system: CHEAL (Lambsquarters, Common); test: Preemergence herbicidal evaluation; type: in vivo, Chenopodium album; settings: rated 4-5 weeks after treatment; for CHEAL rating: preemergence, 0-9 scale
Method in brief: as §4

[9] = system: GALAP (Galium); test: Postemergence herbicidal evaluation; type: in vivo, Galium aparine; settings: for GALAP herbicidal rating: postemergence
Method in brief: as §3

[10] = system: IPOHE (Morningglory, Ivyleaf); test: Preemergence herbicidal evaluation; type: in vivo, Ipomoea hederacea; settings: rated 4-5 weeks after treatment; for IPOHE rating: preemergence, 0-9 scale
Method in brief: as §4

[11] = system: AMBEL (Ragweed, Common); test: Preemergence herbicidal evaluation; type: in vivo, Ambrosia artemisifolia; settings: rated 4-5 weeks after treatment; for AMBEL rating: preemergence, 0-9 scale
Method in brief: as §4

[12] = system: CYPSE (Flatsedge); test: Preemergence weed control under flooded paddy conditions; type: in vivo, Cyperus serotinus; settings: rated 3-4 weeks after treatment
Method in brief: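 Using flooded silt loam (water 1.5 to 3 cm deep), seeds sown in the top 0.5 cm were exposed preemergence to compound pipetted into the flood at about 0.0313 to 0.500 kg/ha. Effects were scored 0-9 by eye three to four weeks later.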

[13] = system: CYPSE (Flatsedge); test: Postemergence weed control under flooded paddy conditions; type: in vivo, Cyperus serotinus; settings: postemergence weeds
Method in brief: as §1

[14] = system: CASOB (Sicklepod); test: Postemergence herbicidal evaluation; type: in vivo, Cassia obtusifolia; settings: for CASOB herbicidal rating: postemergence
Method in brief: as §3

[15] = rate 0.0313 kg/ha, 3-4 weeks after treatment
[16] = rate 0.0625 kg/ha, 3-4 weeks after treatment
[17] = rate 0.1250 kg/ha, 3-4 weeks after treatment
[18] = rate 0.2500 kg/ha, 3-4 weeks after treatment
[19] = Rate 0.0313 kg/ha, rated 3 to 4 weeks after treatment
[20] = Rate 0.1250 kg/ha, rated 3 to 4 weeks after treatment
[21] = Rate 0.2500 kg/ha, rated 3 to 4 weeks after treatment

CCOC(=O)CN1C(=O)CS(=O)(=O)C1=Nc1cc(-n2c(=O)cc(C(F)(F)F)n(C)c2=O)c(F)cc1Cl [Compound 46, 2-{{2-Chloro-5-[3,6-dihydro-3-methyl-2,6-dioxo-4-(trifluoromethyl)-1(2H)-pyrimidinyl]-4-fluoro-phenyl}imino}-4-oxo-3-thiazolidineacetic acid, ethyl ester, 1,1-dioxide]
4.5: Postemergence herbicidal rating ZEAMX ([3]; Rate 0.0313 kg/ha)
6.0: Herbicidal rating CYPSE ([12]; 0.2500 kg/ha) | Herbicidal rating CYPSE [13, 18]
4.0: Herbicidal rating ECHORC [1, 18] | Herbicidal rating ECHORC ([2]; 0.2500 kg/ha)
0.0: Herbicidal rating ECHORC [1, 15] | Herbicidal rating ECHORC [1, 16] | Herbicidal rating ECHORC [1, 17] | Herbicidal rating ECHORC ([2]; 0.0313 kg/ha) | Herbicidal rating ECHORC ([2]; 0.0625 kg/ha) | Herbicidal rating ECHORC ([2]; 0.1250 kg/ha) | Preemergence herbicidal rating ZEAMX ([4]; rate 0.1250 kg/ha) | Preemergence herbicidal rating TRZAWR ([5]; rate 0.1250 kg/ha) | Preemergence herbicidal rating TRZAWR ([5]; rate 0.2500 kg/ha) | Herbicidal rating CYPIR ([6]; 0.0313 kg/ha) | Herbicidal rating CYPIR ([6]; 0.0625 kg/ha) | Herbicidal rating CYPIR ([6]; 0.1250 kg/ha) | Herbicidal rating CYPIR ([6]; 0.2500 kg/ha) | Preemergence herbicidal rating ORYSAT ([7]; rate 0.1250 kg/ha) | Preemergence herbicidal rating ORYSAT ([7]; rate 0.2500 kg/ha) | Postemergence herbicidal rating GALAP ([9]; Rate 0.0313 kg/ha) | Postemergence herbicidal rating GALAP ([9]; Rate 0.0625 kg/ha) | Preemergence herbicidal rating IPOHE ([10]; rate 0.1250 kg/ha) | Herbicidal rating CYPSE ([12]; 0.0313 kg/ha) | Herbicidal rating CYPSE ([12]; 0.0625 kg/ha) | Herbicidal rating CYPSE ([12]; 0.1250 kg/ha) | Herbicidal rating CYPSE [13, 15] | Herbicidal rating CYPSE [13, 16] | Herbicidal rating CYPSE [13, 17] | Postemergence herbicidal rating CASOB ([14]; Rate 0.0313 kg/ha) | Postemergence herbicidal rating CASOB ([14]; Rate 0.0625 kg/ha)
1.0: Preemergence herbicidal rating ZEAMX ([4]; rate 0.2500 kg/ha) | Preemergence herbicidal rating IPOHE ([10]; rate 0.2500 kg/ha) | Preemergence herbicidal rating AMBEL ([11]; rate 0.1250 kg/ha) | Preemergence herbicidal rating AMBEL ([11]; rate 0.2500 kg/ha)
9.0: Preemergence herbicidal rating CHEAL ([8]; rate 0.1250 kg/ha) | Preemergence herbicidal rating CHEAL ([8]; rate 0.2500 kg/ha)
5.0: Postemergence herbicidal rating ZEAMX ([3]; Rate 0.0625 kg/ha)

CCOC(=O)CN1C(=O)C(CC(=O)NOC)SC1=Nc1cc(-n2c(=O)cc(C(F)(F)F)n(C)c2=O)c(F)cc1Cl (centres unmarked) [Compound 83, Ethyl 2-{{2-chloro-5-[3,6-dihydro-3-methyl-2,6-dioxo-4-(trifluoromethyl)-1(2H)-pyrimidinyl]-4-fluorophenyl}imino}-5-[(methoxycarbamoyl)methyl]-4-oxo-3-thiazolidineacetate]
4.5: ZEAMX herbicidal rating ([3]; rate 0.0156 kg/ha)
5.0: Herbicidal rating ECHORC [1, 19] | ECHORC herbicidal effect rating ([2]; 0.0313 kg/ha) | TRZAWR rating ([5]; 0.5000 kg/ha) | CYPIR herbicidal effect rating ([6]; 0.0313 kg/ha) | ORYSAT rating ([7]; 0.5000 kg/ha) | GALAP herbicidal rating ([9]; rate 0.1250 kg/ha) | CYPSE herbicidal effect rating ([12]; 0.2500 kg/ha) | Herbicidal rating CYPSE [13, 21]
7.5: ZEAMX herbicidal rating ([3]; rate 0.0313 kg/ha) | ZEAMX herbicidal rating ([3]; rate 0.0625 kg/ha) | ZEAMX herbicidal rating ([3]; rate 0.1250 kg/ha)
6.0: Herbicidal rating ECHORC ([1]; Rate 0.0625 kg/ha, rated 3 to 4 weeks after treatment) | ECHORC herbicidal effect rating ([2]; 0.0625 kg/ha) | CYPIR herbicidal effect rating ([6]; 0.0625 kg/ha) | CYPIR herbicidal effect rating ([6]; 0.1250 kg/ha)
3.0: GALAP herbicidal rating ([9]; rate 0.0625 kg/ha) | IPOHE rating ([10]; 0.1250 kg/ha) | CYPSE herbicidal effect rating ([12]; 0.1250 kg/ha) | Herbicidal rating CYPSE [13, 20]
7.0: Herbicidal rating ECHORC [1, 20] | Herbicidal rating ECHORC [1, 21] | ECHORC herbicidal effect rating ([2]; 0.1250 kg/ha) | ECHORC herbicidal effect rating ([2]; 0.2500 kg/ha) | ZEAMX rating ([4]; 0.5000 kg/ha) | CYPIR herbicidal effect rating ([6]; 0.2500 kg/ha) | CASOB herbicidal rating ([14]; rate 0.0625 kg/ha)
9.0: CHEAL rating ([8]; 0.0156 kg/ha) | CHEAL rating ([8]; 0.0313 kg/ha) | CHEAL rating ([8]; 0.0625 kg/ha) | CHEAL rating ([8]; 0.1250 kg/ha) | CHEAL rating ([8]; 0.2500 kg/ha) | CHEAL rating ([8]; 0.5000 kg/ha) | IPOHE rating ([10]; 0.2500 kg/ha) | IPOHE rating ([10]; 0.5000 kg/ha) | AMBEL rating ([11]; 0.1250 kg/ha) | AMBEL rating ([11]; 0.2500 kg/ha) | AMBEL rating ([11]; 0.5000 kg/ha) | CASOB herbicidal rating ([14]; rate 0.0313 kg/ha) | CASOB herbicidal rating ([14]; rate 0.1250 kg/ha)
0.0: ZEAMX rating ([4]; 0.0156 kg/ha) | ZEAMX rating ([4]; 0.0313 kg/ha) | ZEAMX rating ([4]; 0.0625 kg/ha) | ZEAMX rating ([4]; 0.1250 kg/ha) | ZEAMX rating ([4]; 0.2500 kg/ha) | TRZAWR rating ([5]; 0.0156 kg/ha) | TRZAWR rating ([5]; 0.0313 kg/ha) | TRZAWR rating ([5]; 0.0625 kg/ha) | TRZAWR rating ([5]; 0.1250 kg/ha) | TRZAWR rating ([5]; 0.2500 kg/ha) | ORYSAT rating ([7]; 0.0156 kg/ha) | ORYSAT rating ([7]; 0.0313 kg/ha) | ORYSAT rating ([7]; 0.0625 kg/ha) | ORYSAT rating ([7]; 0.1250 kg/ha) | ORYSAT rating ([7]; 0.2500 kg/ha) | GALAP herbicidal rating ([9]; rate 0.0156 kg/ha) | GALAP herbicidal rating ([9]; rate 0.0313 kg/ha) | IPOHE rating ([10]; 0.0156 kg/ha) | IPOHE rating ([10]; 0.0313 kg/ha) | IPOHE rating ([10]; 0.0625 kg/ha) | AMBEL rating ([11]; 0.0156 kg/ha) | AMBEL rating ([11]; 0.0313 kg/ha) | AMBEL rating ([11]; 0.0625 kg/ha) | CYPSE herbicidal effect rating ([12]; 0.0313 kg/ha) | Herbicidal rating CYPSE [13, 19] | CASOB herbicidal rating ([14]; rate 0.0156 kg/ha)
